Experimental data taken from publication PMC12068008 (International Journal of Molecular Sciences, 2024).
Like-named read-outs stand apart in the source and are kept apart here.

Tests used:
MDA-MB-468 cells = test: SRB assay, MDA-MB-468 cells; type: cell-based, human; conditions: Homo sapiens, MDA-MB-468, 72 h, read-out: IC50 MDA-468
Experimental: (§1) Two human breast cancer cell lines, MDA-MB-231 (HTB-26) and MDA-MB-468 (HTB-132), human cervical cancer cell line HeLa (CCL-2), and MRC-5 (CCL-171) fibroblasts were purchased from the American Type Culture Collection (ATCC, Manassas, VA, USA). All cell lines were cultured in Dulbecco’s Modified Eagle’s Medium (DMEM) with 4500 mg/L glucose and L-glutamine (Capricorn Scientific, Ebsdorfergrund, Germany), supplemented with 10% foetal bovine serum (PAN-Biotech, Aidenbach, Germany), 10,000 U/mL penicillin, and 10 mg/mL streptomycin solution (Capricorn Scientific) under standard conditions at 37 °C in a humidified 5% CO2 atmosphere (ESCO, Lifesciences Group, Singapore).
Cells were seeded on a 96-well plate (Thermo Fisher Scientific, Waltham, MA, USA) at 2 × 10^3 cells per well in DMEM medium. For the analysis of the concentration- and time-dependent effect of the analysed compounds, cell monolayers were treated 24 h after seeding with concentrations 1 × 10^−6, 1 × 10^−5, and 1 × 10^−4 M for 24, 48, or 72 h. Cell viability was detected using sulforhodamine B (SRB) assay, based on the staining of cellular proteins. The assay was performed according to the procedure described by Skehan et al.. The cells were fixed with 10% trichloroacetic acid (TCA, CARLO ERBA Reagents GmbH, Emmendingen, Germany) for 1 h at 4 °C, washed with water, and stained for 15 min with 0.4% SRB (Sigma-Aldrich Chemie GmbH, Steinheim, Germany) in 1% acetic acid. The unbound SRB dye was rinsed with 1% acetic acid, while the protein-bound dye was extracted with a 10 mM Tris base (Sigma-Aldrich). The absorbance was measured at 550 nm with a reference wavelength of 690 nm in a microplate reader (Wallac, VICTOR2 1420 Multilabel counter, PerkinElmer, Turku, Finland). The results were expressed as a percentage of the control, where the cell growth of the control is set to 100%. IC50, defined as the concentration that caused a 50% loss of cell growth, was calculated by non-linear regression analysis with the ED50plus v1.0 software. The selectivity index (SI) was determined according to the following formula:(2) SI=IC50 for fibroblast cell line/IC50 for tumour cell line
(§2) The assay was performed two times in 4 replicates for every experimental group. The statistical significance of differences between treated and untreated cells was estimated by the independent Student’s t-test, with the level of significance set at p < 0.05.

Na^+, K^+-ATPase = conditions: cited from earlier work
MRC-5 cells = test: SRB assay, MRC-5 cells; type: cell-based; conditions: Homo sapiens, MRC5, 72 h, read-out: IC50 MRC
Experimental: as §1
Cells were seeded on a 96-well plate (Thermo Fisher Scientific, Waltham, MA, USA) at 2 × 10^3 cells per well in DMEM medium. For the analysis of the concentration- and time-dependent effect of the analysed compounds, cell monolayers were treated 24 h after seeding with concentrations 1 × 10^−6, 1 × 10^−5, and 1 × 10^−4 M for 24, 48, or 72 h. Cell viability was detected using sulforhodamine B (SRB) assay, based on the staining of cellular proteins. The assay was performed according to the procedure described by Skehan et al.. The cells were fixed with 10% trichloroacetic acid (TCA, CARLO ERBA Reagents GmbH, Emmendingen, Germany) for 1 h at 4 °C, washed with water, and stained for 15 min with 0.4% SRB (Sigma-Aldrich Chemie GmbH, Steinheim, Germany) in 1% acetic acid. The unbound SRB dye was rinsed with 1% acetic acid, while the protein-bound dye was extracted with a 10 mM Tris base (Sigma-Aldrich). The absorbance was measured at 550 nm with a reference wavelength of 690 nm in a microplate reader (Wallac, VICTOR2 1420 Multilabel counter, PerkinElmer, Turku, Finland). The results were expressed as a percentage of the control, where the cell growth of the control is set to 100%. […] The selectivity index (SI) was determined according to the following formula:(2) SI=IC50 for fibroblast cell line/IC50 for tumour cell line […]

eeAChE = eeAChE (Electrophorus electricus, UniProt O42275); test: biochemical; conditions: read-out: Percentage Inhibition AChE
Experimental: The abilities of compounds to inhibit AChE and BuChE activity were determined following Ellman’s procedure, with AChI and BuChI as the enzyme substrate, respectively, and DTNB as a chromogenic reagent. AChE’s and BuChE’s working solutions were prepared at 20 mM TRIS and deionized water, respectively. AChI and BuChI solutions were prepared in deionized water. […] Stock solutions (10 mM) of investigated compounds were prepared daily by dissolving solid compounds in DMSO. The reaction mixture containing phosphate buffer, DTNB, enzyme, and compound was preincubated 30 min at 37 °C. After the preincubation time, the enzyme reaction was initiated by adding appropriate substrate and left to incubate for 6 min. After incubation, 0.1 M SDS was added to stop the reaction. […] A blank assay, containing all components except the enzyme, was used to account for non-enzyme reactions. The control solution contained all components except the inhibitor. All experiments were conducted in triplicate, and the results are expressed as the mean percentage enzyme activity compared to the control value. IC50 values were determined graphically using Origin 9 Microsoft Windows.

eqBuChE = eqBuChE (Equus caballus, UniProt P81908); test: BuChE inhibition (Ellman's procedure); type: biochemical; conditions: for inhibition at 100 µM: read-out: Percentage Inhibition BuChE
Experimental: The abilities of compounds to inhibit AChE and BuChE activity were determined following Ellman’s procedure, with AChI and BuChI as the enzyme substrate, respectively, and DTNB as a chromogenic reagent. AChE’s and BuChE’s working solutions were prepared at 20 mM TRIS and deionized water, respectively. AChI and BuChI solutions were prepared in deionized water. A 0.01 M DTNB solution was prepared with 0.1 M phosphate buffer (pH 7) containing 0.15% (w/v) sodium bicarbonate. Stock solutions (10 mM) of investigated compounds were prepared daily by dissolving solid compounds in DMSO. The reaction mixture containing phosphate buffer, DTNB, enzyme, and compound was preincubated 30 min at 37 °C. After the preincubation time, the enzyme reaction was initiated by adding appropriate substrate and left to incubate for 6 min. After incubation, 0.1 M SDS was added to stop the reaction. Absorbance measurements were performed using a UV/Vis spectrophotometer (Lambda 35, Perkin Elmer), measuring absorbance at 412 nm. A blank assay, containing all components except the enzyme, was used to account for non-enzyme reactions. The control solution contained all components except the inhibitor. All experiments were conducted in triplicate, and the results are expressed as the mean percentage enzyme activity compared to the control value. IC50 values were determined graphically using Origin 9 Microsoft Windows.

[1] = DPPH radical scavenging assay; conditions: for IC50: 30 min incubation, 25 °C; for antioxidative ability (DPPH): 0.01, 0.1 and 1 mM, 30 min
Experimental: DPPH (2,2-diphenyl-1-picrylhydrazyl) radical scavenging assay was used to assess free-radical scavenging activity of synthesized compounds. Initially, 1 × 10^−4 M working solution of DPPH was prepared, and 350 µL was added to 350 µL of the solution of each compound. The final concentrations of the compounds (Q, 2a, and 2b) in the samples were 1 × 10^−3 M, 1 × 10^−4 M, and 1 × 10^−5 M. The control included ethanol only and DPPH–ethanol solution without compounds. The mixtures were incubated at 25 °C in the dark for 30 min. After incubation, the absorbance of the samples at 517 nm was measured in duplicate by using a UV/Vis spectrophotometer (Lambda 35, Perkin Elmer, Waltham, MA, USA). The DPPH radical scavenging ability was calculated using the following equation:(1) Antioxidative activity(%)=Acontrol−Asample/Acontrol×100% where Asample and Acontrol represent the absorbance at 517 nm of the sample and control, respectively. All samples were analysed in duplicate.

MDA-MB-231 cells = test: SRB assay, MDA-MB-231 cells; type: cell-based; conditions: Homo sapiens, MDA-MB-231, 72 h, read-out: IC50 MDA-231
Experimental: (§3) All cell lines were cultured in Dulbecco’s Modified Eagle’s Medium (DMEM) with 4500 mg/L glucose and L-glutamine (Capricorn Scientific, Ebsdorfergrund, Germany), supplemented with 10% foetal bovine serum (PAN-Biotech, Aidenbach, Germany), 10,000 U/mL penicillin, and 10 mg/mL streptomycin solution (Capricorn Scientific) under standard conditions at 37 °C in a humidified 5% CO2 atmosphere (ESCO, Lifesciences Group, Singapore).
(§4) Cells were seeded on a 96-well plate (Thermo Fisher Scientific, Waltham, MA, USA) at 2 × 10^3 cells per well in DMEM medium. For the analysis of the concentration- and time-dependent effect of the analysed compounds, cell monolayers were treated 24 h after seeding with concentrations 1 × 10^−6, 1 × 10^−5, and 1 × 10^−4 M for 24, 48, or 72 h. Cell viability was detected using sulforhodamine B (SRB) assay, based on the staining of cellular proteins. The assay was performed according to the procedure described by Skehan et al.. The cells were fixed with 10% trichloroacetic acid (TCA, CARLO ERBA Reagents GmbH, Emmendingen, Germany) for 1 h at 4 °C, washed with water, and stained for 15 min with 0.4% SRB (Sigma-Aldrich Chemie GmbH, Steinheim, Germany) in 1% acetic acid. The unbound SRB dye was rinsed with 1% acetic acid, while the protein-bound dye was extracted with a 10 mM Tris base (Sigma-Aldrich). […] The results were expressed as a percentage of the control, where the cell growth of the control is set to 100%. […] The selectivity index (SI) was determined according to the following formula:(2) SI=IC50 for fibroblast cell line/IC50 for tumour cell line
as §2

HeLa cells = test: SRB assay, HeLa cells; type: cell-based; conditions: Homo sapiens, HeLa, 72 h, read-out: IC50 HeLa
Experimental: as §3, §4, §2

physchem = type: physicochemical; conditions: shake flask, n-octanol/water, 25 °C, 1 × 10^−4 M; read-out: logP, experimentally obtained
Experimental: To measure the lipophilicity (expressed as the partition coefficient) of the synthesized compounds and their constituents, using a “shake-flask” method, a two-phase system composed of n-octanol and deionized water was used. The stock solutions of the compounds were diluted with water to the concentration of 1 × 10^−4 M, and this solution was used for further investigation. […] The concentration of the compounds was calculated from their extinction coefficient at 260 nm that was previously determined.

Chain of eqBuChE (P81908 whole entry): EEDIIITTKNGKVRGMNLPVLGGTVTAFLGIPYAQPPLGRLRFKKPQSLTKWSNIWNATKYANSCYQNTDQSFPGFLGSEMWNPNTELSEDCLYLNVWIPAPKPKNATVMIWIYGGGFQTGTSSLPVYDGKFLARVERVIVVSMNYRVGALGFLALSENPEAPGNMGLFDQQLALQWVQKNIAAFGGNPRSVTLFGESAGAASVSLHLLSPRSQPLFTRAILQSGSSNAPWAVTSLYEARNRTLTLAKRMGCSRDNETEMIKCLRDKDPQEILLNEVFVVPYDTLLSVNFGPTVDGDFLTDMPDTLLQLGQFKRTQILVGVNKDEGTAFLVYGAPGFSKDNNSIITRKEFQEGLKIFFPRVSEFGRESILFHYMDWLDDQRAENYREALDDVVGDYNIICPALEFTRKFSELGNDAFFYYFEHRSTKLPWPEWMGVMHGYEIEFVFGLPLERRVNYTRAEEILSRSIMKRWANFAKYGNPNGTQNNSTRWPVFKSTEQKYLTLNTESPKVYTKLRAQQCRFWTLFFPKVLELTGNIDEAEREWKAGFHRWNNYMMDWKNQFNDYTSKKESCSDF
Chain of eeAChE (O42275 24-633): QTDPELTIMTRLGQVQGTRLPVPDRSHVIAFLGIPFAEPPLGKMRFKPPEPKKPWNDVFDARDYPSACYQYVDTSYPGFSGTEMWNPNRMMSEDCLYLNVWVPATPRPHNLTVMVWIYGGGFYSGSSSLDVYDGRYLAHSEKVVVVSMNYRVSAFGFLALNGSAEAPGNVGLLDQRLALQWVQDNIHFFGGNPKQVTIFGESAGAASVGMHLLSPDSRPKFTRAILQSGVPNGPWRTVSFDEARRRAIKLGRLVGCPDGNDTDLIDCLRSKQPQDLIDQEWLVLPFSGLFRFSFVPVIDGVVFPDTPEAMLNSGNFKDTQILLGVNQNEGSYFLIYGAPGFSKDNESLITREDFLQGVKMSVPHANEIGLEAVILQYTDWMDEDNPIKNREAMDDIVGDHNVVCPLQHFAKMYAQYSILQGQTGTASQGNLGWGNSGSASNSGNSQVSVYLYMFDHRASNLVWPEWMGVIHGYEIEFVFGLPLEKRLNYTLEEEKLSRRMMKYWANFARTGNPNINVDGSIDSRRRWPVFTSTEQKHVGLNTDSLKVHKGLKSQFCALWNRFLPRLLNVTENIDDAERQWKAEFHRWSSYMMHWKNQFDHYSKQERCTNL

| SMILES | IC50 (MDA-MB-468 cells) | IC50 (Na^+, K^+-ATPase; literature value ref 36) | IC50 (MRC-5 cells) | inhibition at 100 µM (eeAChE) | IC50 (eqBuChE) | inhibition at 100 µM (eqBuChE) | IC50 [1] | IC50 (MDA-MB-231 cells) | IC50 (HeLa cells) | IC50 (Na^+, K^+-ATPase; literature value ref 35) | antioxidative ability (DPPH) [1] | logP at 30 min (physchem) |
| --- | --- | --- | --- | --- | --- | --- | --- | --- | --- | --- | --- | --- |
| O=c1c(O)c(-c2ccc(O)c(O)c2)oc2cc(O)cc(O)c12 [Quercetin, reference compound] | 65.9 ± 3.3 µM | 46.3 µM | 10.4 ± 0.52 µM | 58% | 22.1 µM | 72% | 19.3 µM | 76.6 ± 3.8 µM | 15.1 ± 2.67 µM |  |  |  |
| c1ccc2c(c1)CCNC2 [Compound 1a, 1,2,3,4-tetrahydroisoquinoline, reference compound] |  |  |  | 2% |  | 2% |  |  |  | 25000 µM | did not show antioxidative ability | 1.4 |
| O=C1O[C@H]([C@@H](O)CO)C(O)=C1O [Ascorbic acid] |  |  |  |  |  |  | 0.62 µM |  |  |  |  |  |
| COc1cc2c(cc1OC)CNCC2 [Compound 1b, 6,7-dimethoxy-1,2,3,4-tetrahydroisoquinoline, reference compound] |  |  |  | 14.1% |  | 17.7% |  |  |  |  | did not show antioxidative ability | 1.14 |
